Patent publication US8507533B2, “Glucagon receptor modulators” (Pfizer Inc., priority 2011, dated 2013)

Key:
[1] = biological target: T1, human glucagon receptor (Homo sapiens (Human), UniProt P47871); test: Glucagon cAMP Assay (Cisbio cAMP detection); format: cell-based; settings: CHOK1 cells stably transfected with the human glucagon receptor; block of glucagon induced cAMP production; Kb by modified Cheng-Prusoff equation
[2] = biological target: T1, human glucagon receptor; test: Human Glucagon SPA Assay (binding of [125I]Glucagon-Cex); settings: membrane from chem-1 cells stably transfected with the human glucagon receptor, Ki by Cheng-Prusoff equation
Procedure: The Glucagon SPA assay is used to determine the ability of test compounds to block the binding of glucagon-cex to the glucagon receptor. Test compounds are re-suspended and serially diluted in 100% DMSO. 1 μl of test compound at the desired concentrations is spotted into the appropriate wells of 96 well low binding white clear bottom plate (Corning). 1 μl of DMSO is spotted into total binding wells. 1 μl of a known glucagon antagonist at a concentration of 20 μM is added to non specific binding wells. […] All assay ingredients with the exception of test compounds are re-suspended in the following buffer; 50 mM Hepes pH 7.4; 5 mM MgCl2; 1 mM CaCl; 5% glycerol and 0.2% BSA. Following a 6-10 hr incubation at room temperature the amount of hot ligand bound to the cell membranes is determined by reading the plates on a Wallac Trilux radioactive emission detector. Data is analyzed using Pfizer's Data analysis program. IC50 values are then determined from the generated sigmoidal dose response curves. Ki values are calculated using Cheng-Prusoff equation. N is the number of times the compound was assayed.

T1 sequence (P47871 26-477): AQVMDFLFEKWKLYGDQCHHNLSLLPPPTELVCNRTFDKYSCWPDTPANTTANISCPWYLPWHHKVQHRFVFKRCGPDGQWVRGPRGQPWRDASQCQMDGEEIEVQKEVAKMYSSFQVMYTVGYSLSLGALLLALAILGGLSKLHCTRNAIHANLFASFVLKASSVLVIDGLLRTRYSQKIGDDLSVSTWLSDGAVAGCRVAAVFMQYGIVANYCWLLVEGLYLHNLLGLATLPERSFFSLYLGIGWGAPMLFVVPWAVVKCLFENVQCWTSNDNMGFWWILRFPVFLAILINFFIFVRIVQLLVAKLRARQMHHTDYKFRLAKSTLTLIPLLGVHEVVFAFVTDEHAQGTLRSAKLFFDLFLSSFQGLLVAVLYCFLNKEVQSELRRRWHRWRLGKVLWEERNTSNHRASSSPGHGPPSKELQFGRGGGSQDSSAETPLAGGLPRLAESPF

| Kb [1] [nM] | Ki [2] [nM] | SMILES |
| --- | --- | --- |
| 27 | 20.2 | CCC[C@@H](Nc1ccc(-n2cc(C(C)(C)C)cn2)nc1)c1ccc(C(=O)NCCC(=O)O)cc1 (single isomer, unassigned) [Example 137, 3-(4-(1-(6-(4-tert-butyl-1H-pyrazol-1-yl)pyridin-3-ylamino)butyl)benzamido)propanoic acid] |
| 40 | 5.75 | Cc1cc(OC(c2ccc(C(=O)NCCC(=O)O)cc2)C2CCC2)cc(C)c1-n1cc(C(F)(F)F)cn1 (single isomer, unassigned) [Example 138, 3-(4-(cyclobutyl(3,5-dimethyl-4-(4-(trifluoromethyl)-1H-pyrazol-1-yl)phenoxy)methyl)benzamido)propanoic acid] |
| 883 | 636 | CC(C)C[C@H](Nc1ccc(C(=O)NCCC(=O)O)cn1)c1ccc(-n2cc(C(F)(F)F)cn2)nc1 (single isomer, unassigned) [Example 142, 3-(6-(3-methyl-1-(6-(4-(trifluoromethyl)-1H-pyrazol-1-yl)pyridin-3-yl)butylamino)nicotinamido)propanoic acid] |
| 179 | 57.4 | CC(C)C[C@H](Nc1ccc(C(=O)NCCC(=O)O)cn1)c1ccc(-n2cc(C(F)(F)F)cn2)nc1 (single isomer, unassigned) [Example 143, 3-(6-(3-methyl-1-(6-(4-(trifluoromethyl)-1H-pyrazol-1-yl)pyridin-3-yl)butylamino)nicotinamido)propanoic acid] |
| 21 | 9.05 | O=C(O)CCNC(=O)c1ccc([C@@H](Nc2ccc(-n3cc(C(F)(F)F)cn3)nc2)C2CCCCC2)cc1 (single isomer, unassigned) [Example 146, 3-(4-(cyclohexyl(6-(4-(trifluoromethyl)-1H-pyrazol-1-yl)pyridine-3-ylamino)methyl)benzamido)propanoic acid] |
| 343 | 26.7 | O=C(O)CCNC(=O)c1ccc([C@@H](Nc2ccc(-n3cc(C(F)(F)F)cn3)nc2)C2CCCCC2)cc1 (single isomer, unassigned) [Example 147, 3-(4-(cyclohexyl(6-(4-(trifluoromethyl)-1H-pyrazol-1-yl)pyridine-3-ylamino)methyl)benzamido)propanoic acid] |

Continued, molecule first:

| SMILES | Kb [1] [nM] | Ki [2] [nM] |
| --- | --- | --- |
| CC1(C)CC([C@@H](Nc2ccc(-n3cnc(C(F)(F)F)c3)nc2)c2ccc(C(=O)NCCC(=O)O)cc2)C1 (single isomer, unassigned) [Example 134, 3-(4-((3,3-dimethylcyclobutyl)(6-(4-(trifluoromethyl)-1H-imidazol-1-yl)pyridin-3-ylamino)methyl)benzamido)propanoic acid] | 876 | 110 |
| CC1(C)CC([C@@H](Nc2ccc(-n3cnc(C(F)(F)F)c3)nc2)c2ccc(C(=O)NCCC(=O)O)cc2)C1 (single isomer, unassigned) [Example 135, 3-(4-((3,3-dimethylcyclobutyl)(6-(4-(trifluoromethyl)-1H-imidazol-1-yl)pyridin-3-ylamino)methyl)benzamido)propanoic acid] | 28 | 35 |
| CCC[C@@H](Nc1ccc(-n2cc(C(C)(C)C)cn2)nc1)c1ccc(C(=O)NCCC(=O)O)cc1 (single isomer, unassigned) [Example 136, 3-(4-(1-(6-(4-tert-butyl-1H-pyrazol-1-yl)pyridin-3-ylamino)butyl)benzamido)propanoic acid] | 222 | 30.2 |
| CCCC(Oc1cc(C)c(-n2cc(Cl)cn2)c(C)c1)c1ccc(C(=O)NCCC(=O)O)cc1 (single isomer, unassigned) [Example 145, 3-(4-(1-(4-(4-chloro-1H-pyrazol-1-yl)-3,5-dimethylphenoxy)butyl)benzamido)propanoic acid] | 156 | 93.2 |
